Measured values as given in patent US20210332024A1, “MODULATORS OF PIN1 ACTIVITY AND USES THEREOF” (Yeda Research and Development Co. Ltd., priority 2019, published 2021).

Tests used:
[1] = test system: wild-type 8988T pancreatic cancer cells; assay: Organoid growth in Matrigel, wild-type PATU-8988T; assay type: cell-based; details: 1 μM, 9 days
Description: (§1) As three dimensional (3D) organoid models can reflect in vivo results better than monolayer cell culture [Baker et al., Trends Cancer Res 2016, 2:176-190], the anti-proliferative activity of Pin1-3 in PATU-8988T was further evaluated in wild-type or Pin1-knockout cells grown as organoids in Matrigel™ droplets. Cells were treated for 9 days with Pin1-3 (or Pin1-3-AcA or vehicle as a control), replenishing the compound in media every 3 days.

[2] = molecular target: T1, Pin1 in PATU-8988T cells (Homo sapiens, UniProt Q13526); assay: Live cell competition assay with Pin1-3-DTB pull-down, PATU-8988T cells; assay type: cell-based; details: 0.25 to 1 μM for 5 hours (Pin1-3-AcA 1 μM)
T1 construct: endogenous in cells; host or cells: PATU-8988T
T1 sequence (Q13526 whole entry): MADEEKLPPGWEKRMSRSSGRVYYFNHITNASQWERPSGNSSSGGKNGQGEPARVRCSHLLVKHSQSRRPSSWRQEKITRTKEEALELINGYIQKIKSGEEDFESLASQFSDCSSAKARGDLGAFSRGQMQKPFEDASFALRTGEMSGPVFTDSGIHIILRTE
Description: (§2) The indicated cells were treated with increasing concentrations of either DMSO, Pin1-3, or Pin1-3-AcA for 5 hours. Cells were harvested by scraping and washed twice with PBS before lysis with 50 mM HEPES (pH 7.4), 1 mM EDTA, 10% glycerol, 1 mM TCEP, 150 mM NaCl, 1 mM EDTA, 0.5% NP-40, and protease inhibitor tablet (Roche cat. #4693159001). After clarifying (14,000 rpm for 15 minutes), samples were treated with the indicated concentrations of Pin1-3-DTB at 4° C. for 1 hour. Lysates were then incubated with streptavidin agarose resin (Thermo Scientific, cat. #20349) for 1.5 hour at 4° C. Beads were washed four times with 500 μl of washing buffer (50 mM HEPES (pH 7.5), 10 mM NaCl, 1 mM EDTA, 10% glycerol), then pelleted by centrifugation and dried. The beads were boiled for 5 minutes at 95° C. in 2×LDS+10% β-mercaptoethanol. Proteins of interest were then assessed via Western blotting using the bolt system (Life Technologies).
The indicated cells were plated in 10 cm plates with 2.5 million cells per plate in 6 ml of medium. The day after plating, cells were treated with the indicated concentrations of candidate inhibitor for the indicated time points. The cells were then washed two times with cold phosphate buffer saline (1 ml per 10 cm plate) and collected by scraping with a cell scraper. Cells were lysed in 50 mM HEPES (pH 7.4), 1 mM EDTA, 10% glycerol, 1 mM TCEP, 150 mM NaCl, 1 mM EDTA, 0.5% NP-40, and protease inhibitor tablet (Roche)-using 210 μl of cell lysis buffer per 10 cm plate of cells. After clarifying (14,000 rpm for 15 minutes), 9 μl of each lysate sample was combined with […] of 4×LDS+10% β-mercaptoethanol (in a ratio of 3:1), boiled for 5 minutes, and set aside for the input loading control. Then, 200 μl of each lysate sample was incubated with 1 μM of Pin1-3-DTB for 1 hour at 4° C. and processed as described hereinabove for the lysate pull-down assays.
In order to assess cell permeability of Pin1-3 as well as its ability to engage cellular Pin1, PATU-8988T cells were treated with Pin1-3 (0.25 to 1 μM) for 5 hours. After cell lysis, the lysates were incubated with Pin1-3-DTB (1 μM, 1 hour at 4° C.) and probe-labeled targets were pulled down with streptavidin beads.

[3] = test system: Pin1-knockout pancreatic cancer cells; assay: Organoid growth in Matrigel, Pin1-knockout PATU-8988T; assay type: cell-based; details: 1 μM, 9 days
Description: as §1

[4] = molecular target: T2, Pin1 in IMR32 cells (Homo sapiens, UniProt Q13526); assay: Live cell competition assay with Pin1-3-DTB pull-down, IMR32 cells; assay type: cell-based; details: IMR32 cells, 0.25, 0.5 or 1 μM Pin1-3 or 1 μM Pin1-3-AcA
T2 construct: endogenous in cells; host or cells: IMR32
T2 sequence (Q13526 whole entry): as above
Description: as §2
The indicated cells were plated in 10 cm plates with 2.5 million cells per plate in 6 ml of medium. The day after plating, cells were treated with the indicated concentrations of candidate inhibitor for the indicated time points. The cells were then washed two times with cold phosphate buffer saline (1 ml per 10 cm plate) and collected by scraping with a cell scraper. […]

[5] = molecular target: GST-Pin1 (Homo sapiens, UniProt Q13526); assay: Fluorescence polarization (FP) competition assay; assay type: binding; details: FP assay, competition with fluorescein-labeled peptide, 250 nM GST-Pin1; read-out: Ki (apparent)
Sequence of GST-Pin1 (Q13526 whole entry): as above
Description: Binding affinity to Pin1 was determined using a fluorescence polarization assay to assess competition with an N-terminal fluorescein-labeled peptide (Bth-D-phosThr-Pip-Nal), which was obtained from JPT Peptide Technologies and Proteintech Group. The indicated concentrations of candidate compound were pre-incubated for 12 hours at 4° C. with a solution containing 250 nM glutathione S-transferase (GST)-Pin1, 5 nM of fluorescein-labeled peptide probe, 10 μg/ml bovine serum albumin, 0.01% Tween-20 and 1 mM DTT (dithiothreitol) in a buffer of 10 mM HEPES, 10 mM NaCl and 1% glycerol (pH 7.4). Measurements of FP were performed in black 384-well plates (Corning) using an EnVision™ reader. Apparent Ki values (under the tested conditions) obtained from the FP assay results were derived from the Kenakin Ki equation:
Kenakin Ki=(Lb)(EC50)(Kd)/(Lo)(Ro)+Lb(Ro−Lo+Lb−Kd)
Sittampalam G. S. et al., Eli Lilly & Company and the National Center for Advancing Translational Sciences, 2004].
Covalent labeling of Pin1 was confirmed to translate into enzyme inhibition via a fluorescence polarization (FP) competition assay using a FITC-labeled substrate mimetic peptide inhibitor, as well as a chymotrypsin-coupled PPIase assay, using procedures described in Wei et al. [Nat Med 2015, 21:457-466].
The fluorescent polarization assay was performed in a dose-dependent and time-dependent manner, in order to further characterize the kinetic parameters of Pin1-3 binding to Pin1.

[6] = molecular target: T3, Pin1 in PAT8988T cell lysates (Homo sapiens, UniProt Q13526); assay: Lysate pull-down assay with Pin1-3-DTB; assay type: binding; details: 1 μM probe, 1 hour incubation in cell lysates
T3 construct: endogenous in cells; host or cells: PATU-8988T
T3 sequence (Q13526 whole entry): as above
Description: as §2

`CC(=O)N(CC(C)(C)C)C1CCS(=O)(=O)C1` (stereo not shown) [Pin1-3-AcA, reference compound] was tested, and the Organoid growth [1] was “no effect”, the “Competition with Pin1-3-DTB for Pin1 binding (pull-down)” value [2] was “no competition” and the Organoid growth [3] was “no effect”. For the same molecule, the “Engagement of Pin1 (competition with Pin1-3-DTB)” value [4] was “does not” and the Ki [5] was > 100 µM.
For `CC1NC(=O)NC1CCCCCC(=O)NCCOCCOCCOCCC(=O)NCC(C)(C)CN(C(=O)CCl)C1CCS(=O)(=O)C1` (stereo not shown) [Pin1-3-DTB], the “Pull-down of Pin1 by the probe” value [6] was “complete pull-down” and the Ki [5] was 0.038 µM.
